The record followed here is patent publication US20260014147A1, “STAT6 DEGRADERS” (Gilead Sciences, Inc., priority 2024, published 2026).

SMILES strings stand for the structures.

The target of the first experiment is T1, STAT6 (endogenous, HiBiT-tagged) in HeLa LgBiT clone 4.14 cells (Homo sapiens, UniProt P42226).
T1 construct: These cells express endogenous STAT6; host or cells: HeLa LgBiT clone 4.14
T1 sequence (P42226 1-847): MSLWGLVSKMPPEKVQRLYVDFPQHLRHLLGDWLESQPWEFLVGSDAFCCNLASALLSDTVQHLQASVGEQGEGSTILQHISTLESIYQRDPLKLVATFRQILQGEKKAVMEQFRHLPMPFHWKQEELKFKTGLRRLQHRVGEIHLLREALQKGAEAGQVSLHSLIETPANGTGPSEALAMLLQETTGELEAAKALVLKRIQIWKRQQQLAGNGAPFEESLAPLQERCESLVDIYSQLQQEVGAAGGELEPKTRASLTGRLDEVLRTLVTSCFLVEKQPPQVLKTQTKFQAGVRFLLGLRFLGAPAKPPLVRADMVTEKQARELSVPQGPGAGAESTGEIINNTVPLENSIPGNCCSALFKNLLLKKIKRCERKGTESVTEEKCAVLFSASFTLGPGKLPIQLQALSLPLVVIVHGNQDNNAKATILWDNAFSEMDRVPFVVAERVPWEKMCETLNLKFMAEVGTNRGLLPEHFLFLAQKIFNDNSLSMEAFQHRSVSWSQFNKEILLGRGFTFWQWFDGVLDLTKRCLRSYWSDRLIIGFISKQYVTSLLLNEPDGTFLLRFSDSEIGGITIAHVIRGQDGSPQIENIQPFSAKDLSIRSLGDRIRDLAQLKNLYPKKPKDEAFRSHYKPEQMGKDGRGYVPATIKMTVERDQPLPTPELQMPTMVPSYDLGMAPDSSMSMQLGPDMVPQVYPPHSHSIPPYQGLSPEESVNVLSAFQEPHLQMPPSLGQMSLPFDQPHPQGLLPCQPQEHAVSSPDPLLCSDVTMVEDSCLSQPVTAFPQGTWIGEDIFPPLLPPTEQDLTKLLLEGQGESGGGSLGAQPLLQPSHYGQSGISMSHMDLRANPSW
The experiment in a line: STAT6 Degrader Assay (HiBiT based, HeLa LgBiT clone 4.14 cells, luminescence, DC50). It counts as cell-based. Particulars: DC50 provided for test compounds with >80% Emax, geometric mean, read-out: STAT6 degradation DC50. The gist of the method:
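Remaining STAT6 is read as NanoBiT luminescence after 0.5 h with Nano-Glo, in HeLa LgBiT clone 4.14 cells expressing endogenous HiBiT-tagged STAT6, following 4-24 h compound incubation at 37 °C. Full degradation is set by 50 µM terfenadine, which kills the cells; degradation plotted against log compound concentration.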
As for `COCc1nc2cc(-c3ccnc4c3cc(CN3CCC(c5ccc(C(=O)N6CCC(CN7CCN(c8ncc(NC9CCC(=O)NC9=O)cc8F)CC7)CC6)cc5)CC3)n4C)ccc2[nH]1` (stereo not shown) [Example 2n6, 3-((5-fluoro-6-(4-((1-(4-(1-((4-(2-(methoxymethyl)-1H-benzo[d]imidazol-5-yl)-1-methyl-1H-pyrrolo[2,3-b]pyridin-2-yl)methyl)piperidin-4-yl)benzoyl)piperidin-4-yl)methyl)piperazin-1-yl)pyridin-3-yl)amino)piperidine-2,6-dione], the DC50 came to 11.7 nM.
With `C[C@@H](c1cc2c(-c3ccc4[nH]ncc4c3)ccnc2n1C)N1CCC(c2ccc(C(=O)N3CCC(CN4CCN(c5ccc(NC6CCC(=O)NC6=O)c(F)n5)CC4)CC3)cc2)CC1` (stereo partly drawn) [Example 2n7, 3-((6-(4-((1-(4-(1-((S)-1-(4-(1H-indazol-5-yl)-1-methyl-1H-pyrrolo[2,3-b]pyridin-2-yl)ethyl)-piperidin-4-yl)benzoyl)piperidin-4-yl)methyl)piperazin-1-yl)-2-fluoropyridin-3-yl)amino)piperidine-2,6-dione], the 50% degradation concentration (DC50) turned out to be 18 nM.
The same measure, in the same setting: the result for `C[C@@H](c1cc2c(-c3ccc4[nH]ncc4c3)ccnc2n1C)N1CCC(c2ccc(C(=O)N3CCC(CN4CCN(c5ncc(NC6CCC(=O)NC6=O)cc5F)CC4)CC3)cc2)CC1` (stereo partly drawn) [Example 2n8, 3-((6-(4-((1-(4-(1-((S)-1-(4-(1H-indazol-5-yl)-1-methyl-1H-pyrrolo[2,3-b]pyridin-2-yl)ethyl)-piperidin-4-yl)benzoyl)piperidin-4-yl)methyl)piperazin-1-yl)-5-fluoropyridin-3-yl)amino)piperidine-2,6-dione] reads 6.5 nM; that for `CNc1ccc(-c2ccnc3c2cc([C@H](C)N2CCC(c4ccc(C(=O)N5CCC(CN6CCN(c7ncc(NC8CCC(=O)NC8=O)cc7F)CC6)CC5)cc4)CC2)n3C)cn1` (stereo partly drawn) [Example 2n13, 3-((5-fluoro-6-(4-((1-(4-(1-((S)-1-(1-methyl-4-(6-(methylamino)pyridin-3-yl)-1H-pyrrolo[2,3-b]pyridin-2-yl)ethyl)piperidin-4-yl)benzoyl)piperidin-4-yl)methyl)-piperazin-1-yl)pyridin-3-yl)amino)piperidine-2,6-dione], 30 nM.
On the same count and under the same terms, the result for `CNc1ccc(-c2ccnc3c2cc([C@H](C)N2CCC(c4ccc(C(=O)N5CCC(CN6CCN(c7ccc(NC8CCC(=O)NC8=O)c(F)n7)CC6)CC5)cc4)CC2)n3C)cn1` (stereo partly drawn) [Example 2n14, 3-((2-fluoro-6-(4-((1-(4-(1-((S)-1-(1-methyl-4-(6-(methylamino)pyridin-3-yl)-1H-pyrrolo[2,3-b]pyridin-2-yl)ethyl)piperidin-4-yl)benzoyl)piperidin-4-yl)methyl)piperazin-1-yl)pyridin-3-yl)amino)piperidine-2,6-dione] reads 49 nM.
Turning to `Cn1c(CN2CCC(c3ccc(C(=O)N4CCC(CN5CCC(N6CCN(c7ccc(NC8CCC(=O)NC8=O)cc7F)CC6)C(F)(F)C5)CC4)cc3)CC2)cc2c(-c3ccc4[nH]ncc4c3)ccnc21` (stereo not shown) [Example 2p1, 3-((4-(4-(1-((1-(4-(1-((4-(1H-indazol-5-yl)-1-methyl-1H-pyrrolo[2,3-b]pyridin-2-yl)methyl)-piperidin-4-yl)benzoyl)piperidin-4-yl)methyl)-3,3-difluoropiperidin-4-yl)piperazin-1-yl)-3-fluorophenyl)-amino)piperidine-2,6-dione], the DC50 was determined as 36.9 nM.
Still for that read-out and setting: the result for `Cn1c(CN2CCC(c3ccc(C(=O)N4CCC(CN5CCC(N6CCN(c7ccc(NC8CCC(=O)NC8=O)cc7F)CC6)C(F)(F)C5)CC4)cc3)CC2)cc2c(-c3ccc(N)nc3)ccnc21` (stereo not shown) [Example 2p2, 3-((4-(4-(1-((1-(4-(1-((4-(6-aminopyridin-3-yl)-1-methyl-1H-pyrrolo[2,3-b]pyridin-2-yl)-methyl)piperidin-4-yl)benzoyl)piperidin-4-yl)methyl)-3,3-difluoropiperidin-4-yl)piperazin-1-yl)-3-fluorophenyl)amino)piperidine-2,6-dione] reads 61 nM.
`COCc1nc2cc(-c3ccnc4c3cc(CN3CCC(c5ccc(C(=O)N6CCC(CN7CCC(N8CCN(c9ccc(NC%10CCC(=O)NC%10=O)cc9F)CC8)C(F)(F)C7)CC6)cc5)CC3)n4C)ccc2[nH]1` (stereo not shown) [Example 2p3, 3-((4-(4-(3,3-difluoro-1-((1-(4-(1-((4-(2-(methoxymethyl)-1H-benzo[d]imidazol-5-yl)-1-methyl-1H-pyrrolo[2,3-b]pyridin-2-yl)methyl)piperidin-4-yl)benzoyl)piperidin-4-yl)methyl)piperidin-4-yl)piperazin-1-yl)-3-fluorophenyl)amino)piperidine-2,6-dione]: the 50% degradation concentration (DC50) worked out at 20.6 nM.
On the same count and under the same terms, the figure for `COCc1nc2cc(-c3ccnc4c3cc(CN3CCC(c5ccc(C(=O)N6CCn7nc(CN8CCC(c9ccc(NC%10CCC(=O)NC%10=O)cc9F)C(F)(F)C8)cc7C6)cc5)CC3)n4C)ccc2[nH]1` (stereo not shown) [Example 2q12, 3-((4-(3,3-difluoro-1-((5-(4-(1-((4-(2-(methoxymethyl)-1H-benzo[d]imidazol-5-yl)-1-methyl-1H-pyrrolo[2,3-b]pyridin-2-yl)methyl)piperidin-4-yl)benzoyl)-4,5,6,7-tetrahydropyrazolo[1,5-a]pyrazin-2-yl)methyl)piperidin-4-yl)-3-fluorophenyl)amino)piperidine-2,6-dione] is 12.9 nM.

The experiment is the same for the next values; noted with them: Emax provided for test compounds with <80% Emax (and 2c15), geometric mean, read-out: STAT6 degradation Emax.
Turning to `Cn1c(CN2CCC(c3ccc(C(=O)N4CCC(CN5CCN(c6ncc(NC7CCC(=O)NC7=O)cc6F)CC5)CC4)cc3)CC2)cc2c(-c3ccc(N)nc3)ccnc21` (stereo not shown) [Example 2n5, 3-((6-(4-((1-(4-(1-((4-(6-aminopyridin-3-yl)-1-methyl-1H-pyrrolo[2,3-b]pyridin-2-yl)methyl)-piperidin-4-yl)benzoyl)piperidin-4-yl)methyl)piperazin-1-yl)-5-fluoropyridin-3-yl)amino)piperidine-2,6-dione], the Emax lay within 60 to 70%.
Same read-out and setting: the figure for `COCc1nc2cc(-c3ccnc4c3cc([C@H](C)N3CCC(c5ccc(C(=O)N6CCC(CN7CCN(c8ccc(NC9CCC(=O)NC9=O)c(F)n8)CC7)CC6)cc5)CC3)n4C)ccc2[nH]1` (stereo partly drawn) [Example 2n11, 3-((2-fluoro-6-(4-((1-(4-(1-((S)-1-(4-(2-(methoxymethyl)-1H-benzo[d]-imidazol-5-yl)-1-methyl-1H-pyrrolo[2,3-b]pyridin-2-yl)ethyl)piperidin-4-yl)benzoyl)-piperidin-4-yl)methyl)piperazin-1-yl)pyridin-3-yl)amino)piperidine-2,6-dione] is 70 to 80%; for `CNc1ccc(-c2ccnc3c2cc([C@H](C)N2CCC(c4ccc(C(=O)N5CCC(CN6CCN(c7ncc(NC8CCC(=O)NC8=O)cc7F)CC6)CC5)cc4)CC2)n3C)cn1` (stereo partly drawn) [Example 2n13, 3-((5-fluoro-6-(4-((1-(4-(1-((S)-1-(1-methyl-4-(6-(methylamino)pyridin-3-yl)-1H-pyrrolo[2,3-b]pyridin-2-yl)ethyl)piperidin-4-yl)benzoyl)piperidin-4-yl)methyl)-piperazin-1-yl)pyridin-3-yl)amino)piperidine-2,6-dione] it is 79.3%; for `CN(C(=O)c1ccc(C2CCN(Cc3cc4c(-c5ccc(N)nc5)ccnc4n3C)CC2)cc1)c1ccc(CC2CCN(c3ccc(NC4CCC(=O)NC4=O)cc3)CC2)cc1` (stereo not shown) [Example 2o1, 4-(1-((4-(6-aminopyridin-3-yl)-1-methyl-1H-pyrrolo[2,3-b]pyridin-2-yl)-methyl)piperidin-4-yl)-N-(4-((1-(4-((2,6-dioxopiperidin-3-yl)amino)phenyl)piperidin-4-yl)methyl)phenyl)-N-methylbenzamide] it is 50 to 60%.
Still for that read-out and setting: the result for `CN(C(=O)c1ccc(C2CCN(Cc3cc4c(-c5ccc6[nH]ncc6c5)ccnc4n3C)CC2)cc1)c1ccc(CC2CCN(c3ccc(NC4CCC(=O)NC4=O)cc3)CC2)cc1` (stereo not shown) [Example 2o2, 4-(1-((4-(1H-indazol-5-yl)-1-methyl-1H-pyrrolo[2,3-b]pyridin-2-yl)methyl)-piperidin-4-yl)-N-(4-((1-(4-((2,6-dioxopiperidin-3-yl)amino)phenyl)piperidin-4-yl)methyl)-phenyl)-N-methylbenzamide] reads 60 to 70%.
Turning to `Cn1c(CN2CCC(c3ccc(C(=O)N4CCn5c(CN6CCC(c7ccc(NC8CCC(=O)NC8=O)cc7F)CC6)nnc5C4)cc3)CC2)cc2c(-c3ccc(N)nc3)ccnc21` (stereo not shown) [Example 2q1, 3-((4-(1-((7-(4-(1-((4-(6-aminopyridin-3-yl)-1-methyl-1H-pyrrolo[2,3-b]pyridin-2-yl)methyl)piperidin-4-yl)benzoyl)-5,6,7,8-tetrahydro-[1,2,4]triazolo[4,3-a]pyrazin-3-yl)methyl)piperidin-4-yl)-3-fluorophenyl)amino)piperidine-2,6-dione], the maximum response (Emax) was in the range of 40 to 50%.
Regarding `Cn1c(CN2CCC(c3ccc(C(=O)N4CCn5c(CN6CCC(c7ccc(NC8CCC(=O)NC8=O)cc7F)CC6)nnc5C4)cc3)CC2)cc2c(-c3ccc4[nH]ncc4c3)ccnc21` (stereo not shown) [Example 2q2, 3-((4-(1-((7-(4-(1-((4-(1H-indazol-5-yl)-1-methyl-1H-pyrrolo[2,3-b]pyridin-2-yl)methyl)-piperidin-4-yl)benzoyl)-5,6,7,8-tetrahydro-[1,2,4]triazolo[4,3-a]pyrazin-3-yl)methyl)piperidin-4-yl)-3-fluorophenyl)amino)piperidine-2,6-dione], the Emax lay within 70 to 80%.

For orientation: DC50 means the concentration at which degradation of the target reaches its halfway point. The term Emax denotes the greatest response seen or fitted, relative to the assay's reference.
